These results are taken from patent publication US8143262B2, “7-(3′,4′-Dialkoxyphenyl)[1,2,4]-triazolo[1,5-A]pyrimidine compounds, process for preparing thereof, and pharmaceutical composition for treating or preventing asthma, chronic obstructive pulmonary disease, arthritis, atopic dermatitis, tumor and degenerative brain diseases comprising the same” (Korea Research Institute of Chemical Technology, priority 2007, dated 2012).

The subject of one series is ferrets. In words: Test of side-effect related to emesis in ferrets. Type of series: in vivo. The settings on record: ferret, 7 mg/kg. How it is done:
Male ferrets having the body weight of about 1.5˜2 kg, purchased from Marshal, were classified into the groups: control, yohimbine, #102-500 mg/kg and #102-1000 mg/kg treated groups. For three animals in each group, the medicine dissolved in 0.5% CMC at a concentration of 500 and 1000 mg/kg was orally administered. During 3 hours after then, the number of vomiting for each animal, and the number of animals showing salivation and diarrhea were measured by visual observation.

A further series has as its target T1, Human PDE-4d (Homo sapiens, UniProt Q08499).
T1 construct: The catalytic domain of PDE4d was cloned to pGEX4T3 (APBiotech) as GST fusion expression vector; GST (N); made in house; host or cells: E. coli BL21, DE3
As to the kind of experiment: Inhibition of PDE-4 activity ([3H]cAMP hydrolysis, recombinant catalytic domain). Type of series: biochemical. The settings on record: for pIC50: PDE4d 1 nM, cAMP 250 nM, 34° C., 45 minutes, read-out: IC50 against PDE-4 enzyme. How it is done:
Experiment of inhibiting PDE-4 activity was carried out by modifying the method of Loughney (Loughney et al., Journal of Biological Chemistry, 1996, 271(2), 796-806). Human PDE-4d prepared by means of gene recombination technology was used as PDE-4d
The catalytic domain of PDE4d was cloned to pGEX4T3 (APBiotech) as GST fusion expression vector, and then PDE4d gene was transformed to E. coli BL21, DE3. The strain was cultured at 37° C. in LB medium, and when OD reached about 0.3˜0.5, the temperature was lowered to 18° C. to induce expression of PDE4d by using 0.5 mM IPTG. After 15 hours from induction of the expression, cells with PDE4d expressed were recovered. The cells were suspended in a buffer solution (50 mM Tris, pH 8.0, 0.4M NaCl, 5 mM DTT), and crushed, centrifuged and purified. The columns used for the purification were Q-cephalose (APBiotech), Glutanione-cephalose (APBiotech) and Superdex200 gel permeation chromatography (APBiotech), in this order.
In order to measure the ability of individual compound to inhibit PDE4d activity, PDE4d 1 nM and cAMP (Sigma) 250 nM as substrate were added to the reaction buffer (50 mM Tris-HCl (pH 7.5) and 4 mM MgCl2), and individual compound obtained from Example 1 was added in a concentration from 1 to 50 μM thereto, and the mixture was reacted at 34° C. for 45 minutes. Total reaction solution was 60 μl. As to cAMP, a mixture with the ratio of [^3H]cAMP (Amersham, 1 μCi/μl) to cAMP (hot:cold, that is, isotope:non-isotope) being 1:200 was used. Then, the reaction was quenched by heating at 95° C. for 2 minutes. After cooling the mixture for 3 minutes, 1 mg/ml of Snake Venome (Sigma V0376) (30 μl) was added thereto. After reacting at 34° C. for 30 minutes, 30 μl of the reaction mixture was added to 250 μl of DOWEX 1×2-100 ion exchange resin (Aldrich, previously mixed with distilled water in a ratio of 1:1.6) by portions, and the mixture was vigorously stirred for 2 minutes. After settling the resin down, the supernatant (130 μl) was added to 2 ml of scintillation cocktail (Packard), and the mixture was thoroughly mixed, and then measured by using beta-counter. With respect to the enzyme activity of control group (experiment carried out without adding compound of Chemical Formula (1)), the concentration of each test compound to inhibit 50% of enzyme activity was determined as IC50.

In a further series the test system is PDE-4. The settings on record: background art; read-out: IC50 of inhibiting PDE-4; cited from earlier work.
Series [1] relates to OVA-sensitized C57BL/6J mice. In words: Eosinophil peroxidase activity (EPO activity) in bronchoalveolar washing of OVA-sensitized mice. The settings on record: oral, 5, 50, 100 and 300 mg/kg. Type of series: in vivo, mouse. Here is the method:
(§1) For animal test in vivo, 8-9 week old male C57BL/6J mice having body weight of 20-25 g were used as the test animal. For sensitization and challenge of airway and lung by ovalbumin (OVA), OVA mixed with Al(OH)3 was administered intraperitoneally to cause first sensitization, and second sensitization after 10 days from the first sensitization. After 6 days from the second sensitization, the animals were inhaled with 5% OVA via nebulizer for 3 days. Administration of medicine to the sensitized mice was carried out intraorally (po), three times one hour before every inhalation of OVA. To the control group, 0.5% CMC was administered.
In order to observe cell activity and cell constitution in the washing solution of mouse bronchus alveolus, the animal was inhaled with OVA. After 62 hours, the mouse was anesthetized and the cervicothoracic region was open. A tube containing 0.8 ml of PBS was inserted to the bronchus, and PBS was injected. After massaging the chest for about 30 seconds, cell suspension was obtained from the lung. The cells obtained were centrifuged with 400×g. […] For the measurement of EPO activity, the cell suspension ([…]) was reacted with 0.1 mM OPD, 0.05 M Tris-HCl (pH 8.0), Triton X-100 and 1 mM H2 O2, and then absorbance at 492 nm was measured.

In series [2] the test system is OVA-sensitized C57BL/6J mice. In words: Airway hyper-responsiveness (Penh, whole body plethysmography) after methacholine in OVA-sensitized mice. The settings on record: oral, 100 mg/kg; versus Roflumilast 100 mg/kg oral. Type of series: in vivo, mouse. Here is the method:
as §1
The analysis of airway hyper-responsiveness (AHR) was carried out by using a whole body plethysmographer with a living animal.
After 48 hours from inhalation of OVA, the animal was inhaled with methacholine (Mch) by means of nebulizer. Responsiveness of airway due to Mch was evaluated by enhanced pause (Penh) value on capability of respiration through airway by means of whole body plethysmography, and compared with control medicine.

The pIC50 is the IC50 on a negative log10 scale, so that one unit is a factor of ten.

The structures appear in SMILES notation. pIC50: −log10 of the molar value.

T1 sequence (Q08499 386-715 limits assumed): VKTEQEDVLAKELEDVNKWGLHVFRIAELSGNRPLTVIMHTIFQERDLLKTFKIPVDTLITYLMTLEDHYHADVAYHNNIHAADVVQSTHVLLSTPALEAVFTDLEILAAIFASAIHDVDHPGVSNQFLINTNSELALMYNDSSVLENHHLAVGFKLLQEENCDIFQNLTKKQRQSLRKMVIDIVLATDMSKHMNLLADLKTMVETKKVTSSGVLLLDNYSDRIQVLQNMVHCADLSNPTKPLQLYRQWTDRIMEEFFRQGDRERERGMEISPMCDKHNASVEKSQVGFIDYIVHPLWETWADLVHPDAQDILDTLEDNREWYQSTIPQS

Regarding `COC(=O)[C@@H]1[C@H]2C[C@H]3c4[nH]c5ccccc5c4CCN3C[C@@H]2CC[C@@H]1O` [yohimbine], the “animals showing salivation and diarrhea” value in the series with ferrets came out at 66%. Besides, the “vomiting symptoms (number of vomiting per animal)” value with ferrets (observed in all ferrets used) is recorded as “average twice”.
Regarding `Fc1cccc(-c2nc3nccc(-c4ccc(OC(F)F)c(OCC5CC5)c4)n3n2)c1` [Compound 106, 7-[3-(Cyclopropylmethoxy)-4-(difluoromethoxy)phenyl]-2-(3-fluorophenyl)-[1,2,4]triazolo[1,5-a]pyrimidine], the pIC50 on Human PDE-4d is 7.64.
`FC(F)Oc1ccc(-c2ccnc3nc(-c4ccc(C(F)(F)F)cc4)nn23)cc1OCC1CC1` [Compound 125, 7-[3-(Cyclopropylmethoxy)-4-(difluoromethoxy)phenyl]-2-(4-trifluoromethylphenyl)-[1,2,4]triazolo[1,5-a]pyrimidine]: the negative logarithm of the IC50 (pIC50) on Human PDE-4d is 6.72.
As to `Cc1cccc(-c2nc3nccc(-c4ccc(OC(F)F)c(OCC5CC5)c4)n3n2)c1` [Compound 132, 7-[3-(Cyclopropylmethoxy)-4-(difluromethoxy)phenyl]-2-m-tolyl-[1,2,4]triazolo[1,5-a]pyrimidine], the pIC50 on Human PDE-4d was 7.52.
Same read-out and setting: as for `Cc1ccc(-c2nc3nccc(-c4ccc(OC(F)F)c(OCC5CC5)c4)n3n2)c(C)c1` [Compound 136, 7-[3-(Cyclopropylmethoxy)-4-(difluoromethoxy)phenyl]-2-(2,4-dimethylphenyl)-[1,2,4]triazolo[1,5-a]pyrimidine], the figure is 7.22; as for `FC(F)Oc1ccc(-c2ccnc3nc(-c4cccnc4)nn23)cc1OCC1CC1` [Compound 111, 3-[7-{3-(cyclopropylmethoxy)-4-(difluoromethoxy)phenyl}-[1,2,4]triazolo[1,5-a]pyrimidin-2-yl]-pyridinium bisulfate], 7.38.
Regarding `O=C(Nc1c(Cl)cncc1Cl)c1ccc(OC(F)F)c(OCC2CC2)c1` [Roflumilast], the pIC50 in the series with PDE-4 was 9.10.
As to `FC(F)Oc1ccc(-c2ccnc3nc(-c4cccnc4Cl)nn23)cc1OCC1CC1` [Compound 105, 2-(2-chloropyridin-3-yl)-7-[3-(cyclopropylmethoxy)-4-(difluoromethoxy)phenyl]-[1,2,4]triazolo[1,5-a]pyrimidine], the pIC50 on Human PDE-4d is 7.28.
As for `[O-][n+]1cccc(-c2nc3nccc(-c4ccc(OC(F)F)c(OCC5CC5)c4)n3n2)c1` [Compound 102, 3-[7-{3-(cyclopropylmethoxy)-4-(difluoromethoxy)phenyl}-[1,2,4]triazolo[1,5-a]pyrimidine-2-yl]-pyridine-N-oxide], in series [1], the “eosinophil peroxidase activity (EPO activity)” value was “excellent effect”. In addition, the negative-log IC50 (pIC50) on Human PDE-4d was 7.13. Besides, the “effect of treating asthma: degree of airway contraction by enhanced pause (Penh) value” in series [2] is on record as “far superior effect of treating asthma to the control compound, Roflumilast”.
Take `Cc1cc(C)cc(-c2nc3nccc(-c4ccc(OC(F)F)c(OCC5CC5)c4)n3n2)c1` [Compound 133, 7-[3-(Cyclopropylmethoxy)-4-(difluoromethoxy)phenyl]-2-(3,5-dimethylphenyl)-[1,2,4]triazolo[1,5-a]pyrimidine]: the negative logarithm of the IC50 (pIC50) on Human PDE-4d was 7.38.
On to `Cc1ccc(-c2nc3nccc(-c4ccc(OC(F)F)c(OCC5CC5)c4)n3n2)cc1` [Compound 113, 7-[3-(Cyclopropylmethoxy)-4-(difluoromethoxy)phenyl]-2-p-tolyl-[1,2,4]triazolo[1,5-a]pyrimidine], for which the pIC50 on Human PDE-4d is 7.30.
As to `CSc1ccc(-c2nc3nccc(-c4ccc(OC(F)F)c(OCC5CC5)c4)n3n2)cc1` [Compound 140, 7-[3-(Cyclopropylmethoxy)-4-(difluoromethoxy)phenyl]-2-(4-methylthiophenyl)-[1,2,4]triazolo[1,5-a]pyrimidine], at Human PDE-4d, the pIC50 was 7.46.
`O=C(O)c1cccc(-c2nc3nccc(-c4ccc(OC(F)F)c(OCC5CC5)c4)n3n2)c1` [Compound 131, 3-[7-{3-(Cyclopropylmethoxy)-4-(difluoromethoxy)phenyl}-[1,2,4]triazolo[1,5-a]pyrimidin-2-yl]benzoic acid]: the pIC50 on Human PDE-4d was 7.70. At Human PDE-4d (comment on Table 2), the “activity on inhibiting PDE-4 (in words)” value is “excellent activity on inhibiting PDE-4”.
In the case of `N#Cc1ccc(-c2nc3nccc(-c4ccc(OC(F)F)c(OCC5CC5)c4)n3n2)cn1` [Compound 123, 2-(2-cyano-pyridin-5-yl)-7-[3-(cyclopropylmethoxy)-4-(difluoromethoxy)phenyl]-[1,2,4]triazolo[1,5-a]pyrimidine], on Human PDE-4d, the pIC50 was 6.77.
`[O-][n+]1cc(-c2nc3nccc(-c4ccc(OC(F)F)c(OCC5CC5)c4)n3n2)ccc1Cl` [Compound 108, 3-[7-{3-(Cyclopropylmethoxy)-4-(difluoromethoxy)phenyl}-[1,2,4]triazolo[1,5-a]pyrimidine-2-yl]-6-Chloropyridine-N-oxide]: on Human PDE-4d, the pIC50 was 6.62.
Consider `[O-][n+]1cccc(-c2nc3nccc(-c4ccc(OC(F)F)c(OC(F)F)c4)n3n2)c1` [Compound 130, 3-[7-(3,4-Bis-difluoromethoxyphenyl)-[1,2,4]triazolo[1,5-a]pyrimidine-2-yl]-pyridine-N-oxide], for which the pIC50 at Human PDE-4d was 6.60.
